The structures appear in SMILES notation.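 Exposure lasted 48 hours, with cells grown in 96-well plates and compounds tested at five concentrations. Abbreviation: GI50, concentration required for 50% inhibition of growth.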 The source made the active and inactive calls. Rule as the data show it: active = GI50 up to about 1.1 µM and inactive = higher. Bounds are passed on as bounds.

Test systems include SF-295; SNB-19; Malme-3M; A498; OVCAR-5; A549; M14; SK-MEL-28; NCI-H522; HT-29; SF-268; UACC-62; SNB-75; SK-MEL-2; K562; ACHN; NCI-H226; TK-10; NCI-H460; OVCAR-8.
What all share (test): NCI tumour cell line growth inhibition, 48 h

`CC1(c2ccccc2)N=c2[nH]cnc2=C(C(N)=O)N1` (stereo not given): the GI50 in the assay with SF-295, with SNB-19, with Malme-3M, with A498, with OVCAR-5 and in the assay on A549 was > 100 µM (inactive) throughout. Further, the GI50 with M14, in the assay with SK-MEL-28, in the assay on NCI-H522, in the assay with HT-29, in the assay with SF-268 and in the assay with UACC-62 was > 100 µM (inactive) throughout. The GI50 in the assay with SNB-75, in the assay with SK-MEL-2, in the assay with K562, in the assay with ACHN, with NCI-H226 and in the assay on TK-10 was > 100 µM (inactive) each time. Moreover, the GI50 in the assay on NCI-H460 and with OVCAR-8 was > 100 µM (inactive) throughout.
As to `Clc1cc2c(c(CSC3=NCN(CC4CC4)CN3)c1)OCOC2`, the GI50 with SF-295 is 24.6 µM (inactive); in the assay on SNB-19, 26.1 µM (inactive); in the assay with Malme-3M, 18.2 µM (inactive); in the assay with A498 it was 20.7 µM (inactive); in the assay on OVCAR-5, 21 µM (inactive); in the assay on A549 it was 22.8 µM (inactive). The GI50 is 13.8 µM (inactive) with M14; 19.8 µM (inactive) in the assay with SK-MEL-28; 14.5 µM (inactive) with NCI-H522; 20.3 µM (inactive) in the assay with HT-29; 27.3 µM (inactive) in the assay with SF-268; 17.9 µM (inactive) in the assay on UACC-62. Besides, the GI50 with SNB-75 was 18.4 µM (inactive); in the assay with SK-MEL-2, 19.1 µM (inactive); in the assay with K562, 28.1 µM (inactive); in the assay on ACHN it was 17.6 µM (inactive); in the assay with NCI-H226, 20.7 µM (inactive); in the assay with TK-10, 17.2 µM (inactive). The figures for the GI50 with NCI-H460 and in the assay with OVCAR-8 were 17.8 µM (inactive) and 26.9 µM (inactive), respectively.
In the case of `Cc1ccc(NC(=O)CC(=O)n2nc(-c3ccccc3)c(/N=N/c3ccccc3Cl)c2-c2ccccc2)cc1`, the GI50 with SF-295 was 48 µM (inactive); in the assay with SNB-19, 38.8 µM (inactive); in the assay on Malme-3M, 48.3 µM (inactive); in the assay with A498, 34 µM (inactive); in the assay with OVCAR-5, 19.4 µM (inactive); in the assay with A549, 98.2 µM (inactive). The GI50 in the assay with M14 was 88.3 µM (inactive); in the assay with SK-MEL-28 it was 62.2 µM (inactive); with NCI-H522, 65.8 µM (inactive); with HT-29, > 10 µM (inactive); with SF-268, > 10 µM (inactive); with UACC-62, 45.4 µM (inactive). The GI50 in the assay with SNB-75 is 16.4 µM (inactive); in the assay on SK-MEL-2, > 10 µM (inactive); with K562, 94.8 µM (inactive); with ACHN it was 49.9 µM (inactive); in the assay on NCI-H226, > 10 µM (inactive); in the assay on TK-10 it was 83.9 µM (inactive). Moreover, the GI50 is 75.5 µM (inactive) in the assay with NCI-H460 and 42.5 µM (inactive) in the assay with OVCAR-8.
`CN1NC(c2ccccc2)=C(C#N)C(=O)CC1c1ccc(Br)cc1` (stereo not given): the GI50 in the assay with SF-295 is 11.9 µM (inactive); in the assay on SNB-19 it was 28.8 µM (inactive); with Malme-3M, 23.3 µM (inactive); in the assay with A498, 40.4 µM (inactive); in the assay on OVCAR-5 it was 25.5 µM (inactive); in the assay with A549, 32.2 µM (inactive). Besides, the GI50 in the assay on M14 is 20.9 µM (inactive); in the assay with SK-MEL-28, 48 µM (inactive); in the assay on NCI-H522, 22.3 µM (inactive); with HT-29, 28.9 µM (inactive); in the assay with SF-268 it was 35.9 µM (inactive); in the assay on SNB-75, 16.6 µM (inactive). In addition, the GI50 is 28.3 µM (inactive) in the assay with SK-MEL-2; 34 µM (inactive) with ACHN; 0.123 µM (active) in the assay on NCI-H226; 75.3 µM (inactive) in the assay on TK-10; 33.3 µM (inactive) with NCI-H460.
With `C=C(C)[C@@H]1CCC2=C[C@H](CC(C)=CC3=CC(C)=C(O3)[C@@H]1OC)OC2=O`, the GI50 was 21 µM (inactive) with SF-295; 37.2 µM (inactive) in the assay with SNB-19; > 100 µM (inactive) in the assay on Malme-3M; 53.6 µM (inactive) with A498; > 100 µM (inactive) in the assay with OVCAR-5; > 100 µM (inactive) with A549. In addition, the GI50 was 41.5 µM (inactive) in the assay on M14; > 100 µM (inactive) with SK-MEL-28; > 100 µM (inactive) in the assay with NCI-H522; 33.7 µM (inactive) in the assay with SF-268; 29.7 µM (inactive) with UACC-62; 63.5 µM (inactive) with SNB-75. For the same compound, the GI50 in the assay with SK-MEL-2 was 20.9 µM (inactive); with K562, > 100 µM (inactive); with ACHN, 76.6 µM (inactive); in the assay with NCI-H226, 73.8 µM (inactive); in the assay on TK-10, 85.3 µM (inactive); in the assay with NCI-H460 it was > 100 µM (inactive). Besides, the GI50 in the assay with OVCAR-8 was 40.7 µM (inactive).
Take `CN(C)C(=O)C1CCN(Cc2c[nH]c3ccccc23)CC1`: the GI50 in the assay with SF-295, with SNB-19, in the assay on Malme-3M, with A498, in the assay with OVCAR-5 and in the assay on A549 was > 100 µM (inactive) throughout. Moreover, the GI50 in the assay with M14, with SK-MEL-28, in the assay on NCI-H522, with HT-29, with SF-268 and in the assay on UACC-62 was > 100 µM (inactive) in each case. The GI50 in the assay on SNB-75, in the assay on SK-MEL-2, with K562, with ACHN, in the assay with NCI-H226 and in the assay on TK-10 was > 100 µM (inactive) throughout. Further, in the assay with OVCAR-8, the GI50 was > 100 µM (inactive).
Regarding `C[C@]12CCC(=O)C(O)=C1CC[C@@H]1[C@@H]2CC[C@]2(C)C(=O)CC[C@@H]12` [FORMESTANE], the GI50 in the assay with SF-295 was > 100 µM (inactive); in the assay with SNB-19, > 100 µM (inactive); in the assay with Malme-3M, > 100 µM (inactive); in the assay on A498, > 84.5 µM (inactive); with OVCAR-5 it was > 100 µM (inactive); with A549, > 100 µM (inactive). Moreover, the GI50 in the assay with M14 is > 100 µM (inactive); in the assay on SK-MEL-28, > 100 µM (inactive); with NCI-H522 it was > 100 µM (inactive); in the assay with HT-29, > 92.7 µM (inactive); with SF-268 it was > 100 µM (inactive); with UACC-62, > 100 µM (inactive). The GI50 is > 100 µM (inactive) in the assay on SNB-75; > 100 µM (inactive) with SK-MEL-2; > 89.9 µM (inactive) in the assay with K562; > 100 µM (inactive) in the assay with ACHN; > 100 µM (inactive) in the assay on NCI-H226; > 100 µM (inactive) in the assay on TK-10. Moreover, the GI50 with NCI-H460 and in the assay with OVCAR-8 was > 100 µM (inactive) each time.

The values are drawn from ChEMBL document CHEMBL1201862, “PubChem BioAssay data set” (2004).
